# Measured values: US20200085839A1, “COMBINATION OF IMMUNOTHERAPEUTICS AND BISFLUOROALKYL-1,4-BENZODIAZEPINONE COMPOUNDS FOR TREATING LYMPHOMAS” (Ayala Pharmaceuticals Inc., priority 2018, published 2020)
# Read-outs that look alike come from different tables or passages of the source.
# Experiments:
# Assay in all cases: Cell surface BCMA by FACS
# Type in all cases: cell-based, human
# Conditions in all cases: for EC50: Homo sapiens
# [1] = test system: Jeko-1 cells (Mantle Cell Lymphoma)
# Procedure: (§1) […] cell lines, comprising 9 subtypes of lymphomas (see Table 1), were seeded at 1×10^5 cells/well in a total volume of 250 μl into a 96-well plate. The cells were cultured in RPMI medium supplemented with 10% FCS. Compound (22) was added to the cell cultures at a concentration of 10 μM, 1 μM, 100 nM, 10 nM, 1 nM, 100 pM, 10 pM, 1 pM, and 100 fM, and cell lines (8 from Hadassah Medical Center, 31 from Eurofins) were incubated at 37° C. for 24 hours with Compound (22). Following incubation, the cells were collected and BCMA levels were evaluated on the cell surface for cell-bound BCMA. Cells were stained with an anti-BCMA antibody (PE anti-human 19F2 BCMA, Biolegend), and cell surface BCMA levels were determined by FACS analysis (Mean Fluorescence Intensity. Soluble BCMA levels were analyzed by ELISA (Human BCMA/TNFRSF17 DuoSet kit: R&D Systems).
# [2] = test system: CA46 cells (Burkitt's Lymphoma)
# Procedure: as §1
# [3] = test system: Ramos cells (Burkitt's Lymphoma)
# Procedure: as §1
# [4] = test system: SR cells (Anaplastic Large Cell Lymphoma)
# Procedure: as §1
# [5] = test system: REC-1 cells (Mantle Cell Lymphoma)
# Procedure: as §1
# SUDHL-8 cells (DLBCL) = test system: SUDHL-8 cells (DLBCL)
# Procedure: as §1
# SUDHL-10 cells (DLBCL) = test system: SUDHL-10 cells (DLBCL)
# Procedure: as §1
# ST486 cells (DLBCL) = test system: ST486 cells (DLBCL)
# Procedure: as §1
# [6] = test system: BC-1 cells (B-cell Lymphoma)
# Procedure: as §1
# DB cells (DLBCL) = test system: DB cells (DLBCL)
# Procedure: as §1
# [7] = test system: Jiyoye cells (Burkitt's Lymphoma)
# Procedure: as §1
# [8] = test system: RPMI-6666 cells (Hodgkin's Lymphoma)
# Procedure: as §1
# [9] = test system: EB-3 cells (Burkitt's Lymphoma)
# Procedure: as §1
# [10] = test system: H9 cells (Cutaneous T-cell Lymphoma)
# Procedure: as §1
# [11] = test system: Namalwa cells (Burkitt's Lymphoma)
# Procedure: as §1
# [12] = test system: TUR cells (Histiocytic Lymphoma)
# Procedure: as §1
# [13] = test system: BCP-1 cells (B-cell Lymphoma)
# Procedure: as §1
# [14] = test system: CRO-AP2 cells (B-cell Lymphoma)
# Procedure: as §1
# [15] = 24 h, read-out: BCMA (Mean Fluorescence Intensity) EC50
smiles,measurement,setting,value
"Cc1cccc2c1NC(=O)[C@@H](NC(=O)[C@H](CCC(F)(F)F)[C@H](CCC(F)(F)F)C(N)=O)N=C2c1cccc(F)c1 [Compound (22), (2R,3S)—N-((3S)-5-(3-fluorophenyl)-9-methyl-2-oxo-2,3-dihydro-1H-1,4-benzodiazepin-3-yl)-2,3-bis(3,3,3-trifluoropropyl)succinamide]",EC50,"[1]; JeKo-1, read-out: mBCMA (MFI) EC50",1.2 nM
same,EC50,"[1]; Jeko-1, 24 h, read-out: BCMA (Mean Fluorescence Intensity) EC50",1.2 nM
same,mBCMA (MFI) Fold Increase,[1]; Jeko-1,7.4 fold
same,BCMA (Mean Fluorescence Intensity) 1 nM Compound (22),"[1]; Jeko-1, 1 nM, 24 h",1654
same,BCMA (Mean Fluorescence Intensity) 100 nM Compound (22),"[1]; Jeko-1, 100 nM, 24 h",2885
same,mBCMA (MFI) Fold Increase,[2],5.5 fold
same,BCMA (Mean Fluorescence Intensity) 1 nM Compound (22),"[2]; 1 nM, 24 h",6424
same,BCMA (Mean Fluorescence Intensity) 100 nM Compound (22),"[2]; 100 nM, 24 h",13506
same,EC50,[2]; [15],2.3 nM
same,EC50,[2]; read-out: mBCMA (MFI) EC50,2.3 nM
same,mBCMA (MFI) Fold Increase,[3],10.8 fold
same,BCMA (Mean Fluorescence Intensity) 1 nM Compound (22),"[3]; 1 nM, 24 h",4899
same,BCMA (Mean Fluorescence Intensity) 100 nM Compound (22),"[3]; 100 nM, 24 h",10264
same,EC50,[3]; [15],1.4 nM
same,EC50,[3]; read-out: mBCMA (MFI) EC50,1.4 nM
same,mBCMA (MFI) Fold Increase,[4],1.0 fold
same,BCMA (Mean Fluorescence Intensity) 1 nM Compound (22),"[4]; 1 nM, 24 h",289
same,BCMA (Mean Fluorescence Intensity) 100 nM Compound (22),"[4]; 100 nM, 24 h",293
same,EC50,[4]; [15],> 10 µM
same,EC50,[4]; read-out: mBCMA (MFI) EC50,> 10 µM
same,mBCMA (MFI) Fold Increase,[5],1.0 fold
same,BCMA (Mean Fluorescence Intensity) 1 nM Compound (22),"[5]; 1 nM, 24 h",217
same,BCMA (Mean Fluorescence Intensity) 100 nM Compound (22),"[5]; 100 nM, 24 h",243
same,EC50,"[5]; Rec1, 24 h, read-out: BCMA (Mean Fluorescence Intensity) EC50",> 10 µM
same,EC50,"[5]; Rec1, read-out: mBCMA (MFI) EC50",> 10 µM
same,mBCMA (MFI) Fold Increase,SUDHL-8 cells (DLBCL),1.7 fold
same,BCMA (Mean Fluorescence Intensity) 1 nM Compound (22),"SUDHL-8 cells (DLBCL); 1 nM, 24 h",350
same,BCMA (Mean Fluorescence Intensity) 100 nM Compound (22),"SUDHL-8 cells (DLBCL); 100 nM, 24 h",414
same,EC50,"SUDHL-8 cells (DLBCL); SU-DHL-8, 24 h, read-out: BCMA (Mean Fluorescence Intensity) EC50",> 10 µM
same,EC50,"SUDHL-8 cells (DLBCL); SU-DHL-8, read-out: mBCMA (MFI) EC50",> 10 µM
same,mBCMA (MFI) Fold Increase,SUDHL-10 cells (DLBCL),6.7 fold
same,BCMA (Mean Fluorescence Intensity) 1 nM Compound (22),"SUDHL-10 cells (DLBCL); 1 nM, 24 h",6061
same,BCMA (Mean Fluorescence Intensity) 100 nM Compound (22),"SUDHL-10 cells (DLBCL); 100 nM, 24 h",7822
same,EC50,"SUDHL-10 cells (DLBCL); SU-DHL10, 24 h, read-out: BCMA (Mean Fluorescence Intensity) EC50",5.9 nM
same,EC50,"SUDHL-10 cells (DLBCL); SU-DHL10, read-out: mBCMA (MFI) EC50",5.9 nM
same,mBCMA (MFI) Fold Increase,ST486 cells (DLBCL),4.5 fold
same,BCMA (Mean Fluorescence Intensity) 1 nM Compound (22),"ST486 cells (DLBCL); 1 nM, 24 h",10564
same,BCMA (Mean Fluorescence Intensity) 100 nM Compound (22),"ST486 cells (DLBCL); 100 nM, 24 h",13410
same,EC50,ST486 cells (DLBCL); [15],0.58 nM
same,EC50,ST486 cells (DLBCL); read-out: mBCMA (MFI) EC50,0.58 nM
same,mBCMA (MFI) Fold Increase,[6],5.9 fold
same,BCMA (Mean Fluorescence Intensity) 1 nM Compound (22),"[6]; 1 nM, 24 h",676
same,BCMA (Mean Fluorescence Intensity) 100 nM Compound (22),"[6]; 100 nM, 24 h",3694
same,EC50,"[6]; BC1, 24 h, read-out: BCMA (Mean Fluorescence Intensity) EC50",30.6 nM
same,EC50,"[6]; BC1, read-out: mBCMA (MFI) EC50",30.6 nM
same,mBCMA (MFI) Fold Increase,DB cells (DLBCL),4.1 fold
same,BCMA (Mean Fluorescence Intensity) 1 nM Compound (22),"DB cells (DLBCL); 1 nM, 24 h",870
same,BCMA (Mean Fluorescence Intensity) 100 nM Compound (22),"DB cells (DLBCL); 100 nM, 24 h",1827
same,cell-bound BCMA,DB cells (DLBCL); FIG. 9A,increased cell-bound BCMA
same,EC50,DB cells (DLBCL); [15],4.9 nM
same,EC50,DB cells (DLBCL); read-out: mBCMA (MFI) EC50,4.9 nM
same,EC50,"[7]; JIYOYE, read-out: mBCMA (MFI) EC50",7.6 nM
same,EC50,"[7]; Jiyoye, 24 h, read-out: BCMA (Mean Fluorescence Intensity) EC50",7.6 nM
same,mBCMA (MFI) Fold Increase,[7]; Jiyoye,4.2 fold
same,BCMA (Mean Fluorescence Intensity) 1 nM Compound (22),"[7]; Jiyoye, 1 nM, 24 h",1864
same,BCMA (Mean Fluorescence Intensity) 100 nM Compound (22),"[7]; Jiyoye, 100 nM, 24 h",2616
same,cell-bound BCMA,"[7]; Jiyoye, FIG. 8A",increased cell-bound BCMA
same,mBCMA (MFI) Fold Increase,[8],6.6 fold
same,BCMA (Mean Fluorescence Intensity) 1 nM Compound (22),"[8]; 1 nM, 24 h",971.5
same,BCMA (Mean Fluorescence Intensity) 100 nM Compound (22),"[8]; 100 nM, 24 h",3287.5
same,EC50,[8]; [15],7 nM
same,EC50,[8]; read-out: mBCMA (MFI) EC50,7 nM
same,mBCMA (MFI) Fold Increase,[9],0.5 fold
same,BCMA (Mean Fluorescence Intensity) 1 nM Compound (22),"[9]; 1 nM, 24 h",549
same,BCMA (Mean Fluorescence Intensity) 100 nM Compound (22),"[9]; 100 nM, 24 h",449
same,EC50,[9]; [15],> 10 µM
same,EC50,[9]; read-out: mBCMA (MFI) EC50,> 10 µM
same,mBCMA (MFI) Fold Increase,[10],1.1 fold
same,BCMA (Mean Fluorescence Intensity) 1 nM Compound (22),"[10]; 1 nM, 24 h",811
same,BCMA (Mean Fluorescence Intensity) 100 nM Compound (22),"[10]; 100 nM, 24 h",900
same,EC50,[10]; [15],> 10 µM
same,EC50,[10]; read-out: mBCMA (MFI) EC50,> 10 µM
same,mBCMA (MFI) Fold Increase,[11],2.0 fold
same,BCMA (Mean Fluorescence Intensity) 1 nM Compound (22),"[11]; 1 nM, 24 h",1395
same,BCMA (Mean Fluorescence Intensity) 100 nM Compound (22),"[11]; 100 nM, 24 h",1690
same,EC50,[11]; [15],10.7 nM
same,EC50,[11]; read-out: mBCMA (MFI) EC50,10.7 nM
same,mBCMA (MFI) Fold Increase,[12],1.0 fold
same,BCMA (Mean Fluorescence Intensity) 1 nM Compound (22),"[12]; 1 nM, 24 h",464
same,BCMA (Mean Fluorescence Intensity) 100 nM Compound (22),"[12]; 100 nM, 24 h",462
same,EC50,[12]; [15],> 10 µM
same,EC50,[12]; read-out: mBCMA (MFI) EC50,> 10 µM
same,mBCMA (MFI) Fold Increase,[13],2.9 fold
same,BCMA (Mean Fluorescence Intensity) 1 nM Compound (22),"[13]; 1 nM, 24 h",398
same,BCMA (Mean Fluorescence Intensity) 100 nM Compound (22),"[13]; 100 nM, 24 h",1159
same,cell-bound BCMA,[13]; FIG. 6A,increased cell-bound BCMA
same,EC50,[13]; [15],45.6 nM
same,EC50,[13]; read-out: mBCMA (MFI) EC50,45.6 nM
same,mBCMA (MFI) Fold Increase,[14],6.6 fold
same,BCMA (Mean Fluorescence Intensity) 1 nM Compound (22),"[14]; 1 nM, 24 h",855
same,BCMA (Mean Fluorescence Intensity) 100 nM Compound (22),"[14]; 100 nM, 24 h",4782
same,EC50,[14]; [15],5.6 nM
same,EC50,[14]; read-out: mBCMA (MFI) EC50,5.6 nM
